# From patent US9278992B2, “Function-selective vitamin D receptor agonist” (Nihon University, priority 2007, dated 2016)
# “Also recorded” adds a separate entry of the source.
# Columns and labels:
# [1] = system: Human myeloid leukemia HL60 cells; test: Differentiation of myeloid leukemia HL60 cells (Nitro blue tetrazolium-reducing activity); type: cell-based; settings: for induction of differentiation marker (Nitro blue tetrazolium-reducing activity), HL60 cells: 3 days
# VDR [2] = biological target: T1, VDR (Homo sapiens, UniProt P11473); test: VDR activation, GAL4-VDR luciferase reporter in HEK293 cells; settings: compared with lithocholic acid and lithocholic acid acetate
# T1 sequence (P11473 127-423 limits assumed): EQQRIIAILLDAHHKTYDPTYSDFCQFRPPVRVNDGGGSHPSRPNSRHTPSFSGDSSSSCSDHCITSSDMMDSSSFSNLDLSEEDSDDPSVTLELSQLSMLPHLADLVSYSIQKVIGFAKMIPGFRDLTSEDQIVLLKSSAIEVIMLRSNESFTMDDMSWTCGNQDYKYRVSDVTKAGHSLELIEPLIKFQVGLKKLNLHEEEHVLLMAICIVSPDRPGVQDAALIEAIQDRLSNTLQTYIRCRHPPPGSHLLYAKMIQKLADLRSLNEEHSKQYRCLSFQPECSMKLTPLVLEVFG
# Protocol: Cells were solubilized 16 to 18 hours later, and evaluated for the luciferase activity.
# [3] = system: Cyp24a1, calbindin D9k, Trpv6, Trpv5; test: Example 5: intraperitoneal administration to mice, mRNA expression in kidney and intestinal mucosa; type: in vivo; settings: day 8
# From the text: Blood was collected by heart puncture on day 8 and tissue mRNAs on day 8 were examined.
# [4] = biological target: T2, G protein-coupled bile acid receptor 1 (GPBAR1) (Homo sapiens, UniProt Q8TDU6); test: Effect on GPBAR1 (FIG. 1); settings: 10 μM
# T2 sequence (Q8TDU6 1-330): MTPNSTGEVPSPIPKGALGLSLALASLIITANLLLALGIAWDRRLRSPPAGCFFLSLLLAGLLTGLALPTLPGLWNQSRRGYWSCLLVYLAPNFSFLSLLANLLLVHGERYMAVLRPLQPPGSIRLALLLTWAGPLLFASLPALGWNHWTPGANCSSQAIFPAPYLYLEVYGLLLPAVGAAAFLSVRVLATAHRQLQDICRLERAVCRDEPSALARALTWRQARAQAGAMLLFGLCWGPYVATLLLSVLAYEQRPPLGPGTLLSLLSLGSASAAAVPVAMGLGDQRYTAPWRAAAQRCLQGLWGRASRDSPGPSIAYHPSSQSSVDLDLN
# [5] = Example 3: mice injected intraperitoneally, body weight and plasma calcium; settings: mouse, in vivo, ip
# [6] = biological target: T3, farnesoid X receptor (FXR) (Homo sapiens, UniProt Q96RI1); test: Effect on FXR (FIG. 1); settings: 18 μM
# T3 sequence (Q96RI1 1-486): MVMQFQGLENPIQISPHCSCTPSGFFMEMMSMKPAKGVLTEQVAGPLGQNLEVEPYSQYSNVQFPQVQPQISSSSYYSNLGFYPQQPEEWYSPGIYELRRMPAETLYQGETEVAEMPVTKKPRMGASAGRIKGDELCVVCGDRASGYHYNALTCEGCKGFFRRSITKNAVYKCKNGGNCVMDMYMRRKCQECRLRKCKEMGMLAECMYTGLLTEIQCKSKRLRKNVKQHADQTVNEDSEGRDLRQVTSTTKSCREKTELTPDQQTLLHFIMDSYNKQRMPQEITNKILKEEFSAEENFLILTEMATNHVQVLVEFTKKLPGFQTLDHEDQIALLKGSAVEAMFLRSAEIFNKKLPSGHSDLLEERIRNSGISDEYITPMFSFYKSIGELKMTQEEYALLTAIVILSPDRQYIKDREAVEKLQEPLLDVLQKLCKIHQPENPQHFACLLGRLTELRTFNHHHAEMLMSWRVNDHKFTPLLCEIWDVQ
# [7] = system: Cyp24a1, calbindin D9k, Trpv6, Trpv5; test: Example 5: oral administration to mice, mRNA expression in kidney and intestinal mucosa; type: in vivo
# From the text: Blood was collected from the tail on days 0, 2, 4, 6, and 8, and by heart puncture on day 12. […]
# (§1) Next, the in vivo effects of orally administered lithocholic acid derivatives (dissolved in corn oil) were examined.
# U937 cells = test: Differentiation markers of myeloid leukemia U937 cells; type: cell-based
# VDR target gene CYP24 = test: Example 3: mice injected intraperitoneally, expression of VDR target gene CYP24 in kidney; type: in vivo; settings: intraperitoneal, every other day, day 8
# VDR [8] = biological target: T4, VDR (Homo sapiens, UniProt P11473); settings: Non-Patent Documents 2 and 3; cited from earlier work
# T4 sequence (P11473 1-427): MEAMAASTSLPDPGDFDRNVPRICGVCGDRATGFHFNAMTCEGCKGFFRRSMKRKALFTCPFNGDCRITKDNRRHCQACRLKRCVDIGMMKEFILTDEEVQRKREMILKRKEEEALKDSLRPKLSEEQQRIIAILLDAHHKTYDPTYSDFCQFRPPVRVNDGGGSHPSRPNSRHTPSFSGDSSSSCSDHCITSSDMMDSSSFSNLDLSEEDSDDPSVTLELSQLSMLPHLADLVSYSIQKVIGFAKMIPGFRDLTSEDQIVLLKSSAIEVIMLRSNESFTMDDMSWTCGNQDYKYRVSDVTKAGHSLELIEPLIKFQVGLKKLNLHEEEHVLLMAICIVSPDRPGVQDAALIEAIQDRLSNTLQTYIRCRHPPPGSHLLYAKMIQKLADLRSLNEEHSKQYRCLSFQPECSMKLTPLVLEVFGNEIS
# [9] = Example 5: oral administration to mice, body weight and plasma calcium; settings: oral (gavage), 1 mmol/kg
# From the text: Blood was collected from the tail on days 0, 2, 4, 6, and 8, and by heart puncture on day 12. Tissue mRNAs on day 12 were examined. * indicates p<0.05; ** indicates p<0.01; *** indicates p<0.001, compared with vehicle control.
# as §1
# leukemic cells = settings: cited from earlier work
# [10] = Example 5: intraperitoneal administration to mice, body weight and plasma calcium; type: in vivo; settings: 0.7 mmol/kg
# From the text: […]. […] […]. Blood was collected by heart puncture on day 8 and tissue mRNAs on day 8 were examined.
# [11] = biological target: T3, farnesoid X receptor (FXR); settings: Non-Patent Documents 3 and 4; cited from earlier work
# myeloid leukemia cells = settings: compared with 1,25(OH)2D3; Honma et al. 1983; cited from earlier work
# [12] = Honma et al. 1983; cited from earlier work
molecule,measurement,setting,value
CCC(=O)O[C@@H]1CC[C@@]2(C)[C@H](CC[C@@H]3[C@@H]2CC[C@]2(C)[C@@H]([C@H](C)CCC(=O)O)CC[C@@H]32)C1 [lithocholic acid propionate],"induction of differentiation markers, HL-60 cells",[1],induced the differentiation markers
same,"induction of differentiation marker (Nitro blue tetrazolium-reducing activity), HL60 cells",[1]; 10 μM,weakly
same,"induction of differentiation marker (Nitro blue tetrazolium-reducing activity), HL60 cells",[1]; 30 μM,effectively
same,selectivity as VDR ligand (VDR versus FXR and GPBAR1),VDR [2],more selective VDR ligand (activating agent) than lithocholic acid and lithocholic acid acetate
same,intestinal mucosa target gene expression,[3]; 0.7 mmol/kg,not effective in inducing intestinal mucosa target gene expression
same,kidney Cyp24a1 expression,[3]; 0.7 mmol/kg,induced the expression of kidney Cyp24a1 as effectively as 1α(OH)D3
same,effects on GPBAR1,[4],extremely weak effects
same,body weight of mice,[5],did not adversely affect the body weight or the blood calcium level
same,potency on FXR,[6],extremely weak potency on FXR
same,kidney Cyp24a1 expression,"[7]; oral (gavage), 0.7 mmol/kg and 1 mmol/kg, day 12",induced the kidney Cyp24a1 expression as effectively as 1α(OH)D3
same,kidney calbindin D9k expression,"[7]; oral (gavage), day 12",not induced
same,"induction of differentiation markers, U937 cells",U937 cells,induced the differentiation markers
same,expression of the VDR target gene CYP24 in kidney,VDR target gene CYP24,induced the expression of the VDR target gene in the organ
lithocholic acid acetate,function and potency as VDR ligand,VDR [8],activated VDR more potently than lithocholic acid; also recorded: more potency on VDR than lithocholic acid
same,"induction of differentiation marker (Nitro blue tetrazolium-reducing activity), HL60 cells",[1]; 10 μM,weakly
same,"induction of differentiation marker (Nitro blue tetrazolium-reducing activity), HL60 cells",[1]; 30 μM,effectively
same,body weight,[9],did not affect the body weight or plasma calcium
same,plasma calcium,[9],did not affect the body weight or plasma calcium
same,differentiation of leukemic cells,leukemic cells,induced the differentiation of leukemic cells
same,body weight,[10],did not decrease their body weight
same,activity on FXR,[11],weaker than that of chenodeoxycholic acid and comparable to that of lithocholic acid
C=C1/C(=C\C=C2/CCC[C@]3(C)[C@@H]([C@H](C)CCCC(C)C)CC[C@@H]23)C[C@@H](O)C[C@@H]1O [1α-hydroxyvitamin D3],intestinal mucosa Cyp24a1 expression,[3]; 12.5 nmol/kg,induced the intestinal mucosa Cyp24a1 expression
same,kidney Cyp24a1 expression,[3]; 12.5 nmol/kg,effectively induced the expression
same,kidney Trpv5 expression,[3]; 12.5 nmol/kg,effectively induced the expression
same,kidney Trpv6 expression,[3]; 12.5 nmol/kg,effectively induced the expression
same,kidney calbindin D9k expression,[3]; 12.5 nmol/kg,effectively induced the expression
same,survival time of the mice inoculated with leukemia cells,myeloid leukemia cells,"more effective than 1,25(OH)2D3 in increasing the survival time"
same,body weight of mice,[5],decreased the body weight of mice
same,"conversion to 1,25-dihydroxyvitamin D3 after injection",[12],"rapidly converted to 1,25-dihydroxyvitamin D3"
same,intestinal mucosa Cyp24a1 expression,[7]; 1 day single oral dose (data not shown),not observed
same,intestinal mucosa Cyp24a1 expression,"[7]; 10 day oral administration, 12.5 nmol/kg",not increased
